Test results reported in patent publication US10047083B2, “Dihydropyrimidinoisoquinolinones and pharmaceutical compositions thereof for the treatment of inflammatory disorders” (GALAPAGOS NV, priority 2011, dated 2018).
pIC50: −log10 of the molar value.

What was measured:
GPR84 = target: T1, GPR84 (Homo sapiens, UniProt Q9NQS5); experiment: GTPγS binding assay (GPR84); format: biochemical; conditions: membranes from stable cell line over expressing GPR84; 3,3′ di indolylmethane at EC80
T1 construct: expressed in transfected cells; membranes used
Outline: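 Membranes (20 μg/well) from a stable GPR84-overexpressing line, pre-incubated with 0.1 μM GDP for 15 min at 4° C, mixed with 0.1 nM [35S]GTPγS and WGA SpA beads in 20 mM HEPES pH 7.4, 5 mM MgCl2, 250 mM NaCl, 0.05% BSA, 75 ug/mL saponin; 90 min at room temperature, then scintillation counting.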

human neutrophils = experiment: Human neutrophil migration assay (embelin-induced); format: cell-based; conditions: neutrophils from human buffy coat, 30 min compound pre-incubation, migration towards embelin at EC80 for 1 h, ATPlite readout, read-out: human neutrophil migration inhibition (Neutrophils)
Experimental: 2. Cellular Assays 2.1. Human Neutrophil Migration Assay
The effect of agonists or antagonists for GPR84 can therefore be assayed in a neutrophil migration test. In the neutrophil migration assay, neutrophils, freshly isolated from buffy coats from human volunteers, are treated with a compound for 30 minutes. Subsequently, the neutrophils are transferred to the upper wells of a Corning HTS transwell 96 permeable support system, of which the lower wells are filled with a embelin solution at EC80 (concentration which gives 80% of the activity of GPR84). After 1 h of incubation, migration of the neutrophils towards embelin in the lower compartment can be quantified by measuring the ATP-content of the lower wells using the ATPlite luminescence ATP detection assay system (Perkin Elmer, Cat. No.: 436110).
A human buffy coat is diluted with an equal volume of ice cold DPBS. 20 mL of the diluted buffy coat is gently mixed with 4 mL of ACD buffer (140 mM citric acid, 200 mM sodium citrate and 220 mM dextrose). Then, 12 mL of the 6% dextran/0.9% NaCl solution (15 g dextran T2000 and 2.25 g NaCl dissolved in 250 mL H2O) is added to the mixture and the samples are inverted gently up to 20 times. The total volume was transferred to a new recipient and incubated at room temperature for 1 h for complete separation of the two phases to occur. The yellowish supernatant is then transferred to a clean centrifugation tube and centrifuged for 12 minutes at 1300 rpm and 4° C. After centrifugation, the supernatant is discarded and the remaining cell pellet is rapidly resuspended in 12 mL of ice-cold H2O for red blood cell lysis to occur. After 20 seconds, 4 mL of ice-cold 0.6 M KCl is added. Samples are mixed carefully and centrifuged for 6 minutes at 1300 rpm, 4° C. The supernatant is discarded and the red blood cell lysis procedure is repeated one more time. Subsequently, the cell pellet is resuspended in 4 mL of DPBS and layered over 5 mL of Lymphoprep (Nycomed Pharma, Cat. No.: 1114545) in a 15 mL centrifuge tube. After centrifugation for 12 min at 1300 rpm, 4° C., the supernatant is removed and the cell pellet, containing the neutrophils, is resuspended in 25 mL chemotaxis buffer (RPMI 1640 medium, supplemented with 10 mM HEPES; freshly made for each experiment)
A cell suspension of 8.9×10^6 cells per milliliter is prepared. 20 μL of compound solution in chemotaxis buffer is added to 180 μL cell suspension. The mixture is incubated at 37° C. for 30 minutes with intermediate resuspension of the cells after 15 minutes. Following this, 70 μL cell suspension is transferred to the upper compartment of a Corning HTS transwell 96 permeable support system with 5.0 μm pore size polycarbonate membrane (Corning, Cat. No.: 3387). The receiver well of the transwell system is then filled with 200 μL chemotaxis buffer containing compound and chemotactic agent (embelin). After incubation at 37° C. in 5% CO2 for 1 h, the upper plate of the transwell system is removed and the cell suspension in the receiver plate is transferred to a 96-well V-bottom plate. 50 μL of DPBS is added to the receiver plate to prevent remaining cells from drying out. The V-bottom plate is centrifuged for 6 minutes at 1500 rpm. The supernatant is removed and the cells are resuspended in 50 μL DPBS. The cells are then transferred back to the receiver plate of the transwell system. After this, 100 μL ATPlite solution (Perkin Elmer, Cat. No: 436110) was added to the cells. The plate is incubated for 10 minutes in the dark, while shaking. […] of cell lysate is then transferred to a white 96-well plate and luminescence is measured. The detected luminescent signal is considered as linearely related to the number of cells having migrated from the upper well to the receiver well.

T1 sequence (Q9NQS5 whole entry): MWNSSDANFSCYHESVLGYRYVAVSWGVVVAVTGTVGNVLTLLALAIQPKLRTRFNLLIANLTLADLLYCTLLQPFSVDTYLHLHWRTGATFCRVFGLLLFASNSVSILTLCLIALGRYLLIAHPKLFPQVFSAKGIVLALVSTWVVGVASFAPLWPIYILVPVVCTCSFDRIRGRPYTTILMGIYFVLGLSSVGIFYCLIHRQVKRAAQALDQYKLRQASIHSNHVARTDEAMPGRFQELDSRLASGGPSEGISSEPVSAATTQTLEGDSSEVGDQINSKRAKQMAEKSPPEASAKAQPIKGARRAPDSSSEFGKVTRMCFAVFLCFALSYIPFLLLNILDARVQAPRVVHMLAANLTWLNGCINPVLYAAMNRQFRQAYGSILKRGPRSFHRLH

SMILES: O=c1nc(OC[C@H]2COCCO2)cc2n1CCc1cc(CCC3(O)CCCC3)ccc1-2 [Compound 169, 2-((R)-1-[1,4]Dioxan-2-ylmethoxy)-9-[2-(1-hydroxy-cyclopentyl)-ethyl]-6,7-dihydro-pyrimido[6,1-a]isoquinolin-4-one]
- pIC50 (GPR84): 6.30 to 7.00
- pIC50 (human neutrophils): 7.00 to 11.00

SMILES: CC(C)C#Cc1ccc2c(c1)CCn1c-2cc(OC[C@@H]2COCCO2)nc1=O [Compound 112, 2-((S)-1-[1,4]dioxan-2-ylmethoxy)-9-(3-methyl-but-1-ynyl)-6,7-dihydro-pyrimido[6,1-a]isoquinolin-4-one]
- pIC50 (GPR84): 7.00 to 11.00
- pIC50 (human neutrophils): 7.00 to 11.00

SMILES: CCC(C)(C)CNc1ccc2c(c1)CCn1c-2cc(OC[C@@H]2COCCO2)nc1=O [Compound 126, 9-(2,2-dimethyl-butylamino)-2-((S)-1-[1,4]dioxan-2-ylmethoxy)-6,7-dihydro-pyrimido[6,1-a]isoquinolin-4-one]
- pIC50 (GPR84): 7.00 to 11.00
- pIC50 (human neutrophils): 7.00 to 11.00

SMILES: CNC(=O)c1ccc(-c2ccc3c(c2)CCn2c-3cc(OCC3COCCO3)nc2=O)cc1 (stereo not shown) [Compound 42, 4-[2-([1,4]dioxan-2-ylmethoxy)-4-oxo-6,7-dihydro-4H-pyrimido[6,1-a]isoquinolin-9-yl]-N-methyl-benzamide]
- pIC50 (GPR84): 6.30 to 7.00
- pIC50 (human neutrophils): 6.30 to 7.00

SMILES: CCCOCCOc1ccc2c(c1)CCn1c-2cc(OC[C@@H]2COCCO2)nc1=O [Compound 170, 2-((S)-1-[1,4]Dioxan-2-ylmethoxy)-9-(2-propoxy-ethoxy)-6,7-dihydro-pyrimido[6,1-a]isoquinolin-4-one]
- pIC50 (GPR84): 7.00 to 11.00
- pIC50 (human neutrophils): 7.00 to 11.00

SMILES: COCCCc1ccc2c(c1)CCn1c-2cc(OC[C@H]2COCCO2)nc1=O [Compound 168, 2-((R)-1-[1,4]Dioxan-2-ylmethoxy)-9-(3-methoxy-propyl)-6,7-dihydro-pyrimido[6,1-a]isoquinolin-4-one]
- pIC50 (GPR84): 6.30 to 7.00
- pIC50 (human neutrophils): 7.00 to 11.00

SMILES: O=c1nc(OCC2COCCO2)cc2n1CCc1cc(C#Cc3cccnc3)ccc1-2 (stereo not shown) [Compound 41, 2-([1,4]dioxan-2-ylmethoxy)-9-pyridin-3-ylethynyl-6,7-dihydro-pyrimido[6,1-a]isoquinolin-4-one]
- pIC50 (GPR84): 6.30 to 7.00
- pIC50 (human neutrophils): 7.00 to 11.00

SMILES: CC(C)C#Cc1ccc2c(c1)CCn1c-2cc(OCC2COCCO2)nc1=O (stereo not shown) [Compound 83, 2-([1,4]dioxan-2-ylmethoxy)-9-(3-methyl-but-1-ynyl)-6,7-dihydro-pyrimido[6,1-a]isoquinolin-4-one]
- pIC50 (GPR84): 7.00 to 11.00
- pIC50 (human neutrophils): 7.00 to 11.00

SMILES: CC(C)c1nc(COc2ccc3c(c2)CCn2c-3cc(OCC3COCCO3)nc2=O)no1 (stereo not shown) [Compound 80, 2-([1,4]dioxan-2-ylmethoxy)-9-(5-isopropyl-[1,2,4]oxadiazol-3-ylmethoxy)-6,7-dihydro-pyrimido[6,1-a]isoquinolin-4-one]
- pIC50 (GPR84): 7.00 to 11.00
- pIC50 (human neutrophils): 7.00 to 11.00

SMILES: CCCCCc1ccc2c(c1)CCn1c-2cc(OC[C@H]2COCCO2)nc1=O [Compound 121, 2-((R)-1-[1,4]dioxan-2-ylmethoxy)-9-pentyl-6,7-dihydro-pyrimido[6,1-a]isoquinolin-4-one]
- pIC50 (GPR84): 7.00 to 11.00
- pIC50 (human neutrophils): 6.30 to 7.00

SMILES: O=c1nc(OCC2COCCO2)cc2n1CCc1cc(C#Cc3ccccn3)ccc1-2 (stereo not shown) [Compound 36, 2-([1,4]dioxan-2-ylmethoxy)-9-pyridin-2-ylethynyl-6,7-dihydro-pyrimido[6,1-a]isoquinolin-4-one]
- pIC50 (GPR84): 7.00 to 11.00
- pIC50 (human neutrophils): 6.30 to 7.00

SMILES: O=c1nc(OC[C@@H]2COCCO2)cc2n1CCc1cc(CCC3CC3)ccc1-2 [Compound 123, 9-(2-cyclopropyl-ethyl)-2-((S)-1-[1,4]dioxan-2-ylmethoxy)-6,7-dihydropyrimido[6,1-a]isoquinolin-4-one]
- pIC50 (GPR84): 7.00 to 11.00
- pIC50 (human neutrophils): 7.00 to 11.00

SMILES: O=c1nc(OCC2COCCO2)cc2n1CCc1cc(OCc3noc(C4CC4)n3)ccc1-2 (stereo not shown) [Compound 77, 9-(5-cyclopropyl-[1,2,4]oxadiazol-3-ylmethoxy)-2-([1,4]dioxan-2-ylmethoxy)-6,7-dihydro-pyrimido[6,1-a]isoquinolin-4-one]
- pIC50 (GPR84): 7.00 to 11.00
- pIC50 (human neutrophils): 7.00 to 11.00

SMILES: COCCOCC#Cc1ccc2c(c1)CCn1c-2cc(OC[C@@H]2COCCO2)nc1=O [Compound 133, 2-((S)-1-[1,4]dioxan-2-ylmethoxy)-9-[3-(2-methoxy-ethoxy)-prop-1-ynyl]-6,7-dihydro-pyrimido[6,1-a]isoquinolin-4-one]
- pIC50 (GPR84): 6.30 to 7.00
- pIC50 (human neutrophils): 7.00 to 11.00

SMILES: CC(C)Oc1ccc(-c2ccc3c(c2)CCn2c-3cc(OCC3COCCO3)nc2=O)cn1 (stereo not shown) [Compound 60, 2-([1,4]Dioxan-2-ylmethoxy)-9-(6-isopropoxy-pyridin-3-yl)-6,7-dihydro-pyrimido[6,1-a]isoquinolin-4-one]
- pIC50 (GPR84): 7.00 to 11.00
- pIC50 (human neutrophils): 7.00 to 11.00

SMILES: CC(C)OCCOc1ccc2c(c1)CCn1c-2cc(OC[C@@H]2COCCO2)nc1=O [Compound 171, 2-((S)-1-[1,4]Dioxan-2-ylmethoxy)-9-(2-isopropoxy-ethoxy)-6,7-dihydro-pyrimido[6,1-a]isoquinolin-4-one]
- pIC50 (GPR84): 7.00 to 11.00
- pIC50 (human neutrophils): 7.00 to 11.00

SMILES: O=c1nc(OCC2COCCO2)cc2n1CCc1cc(CCC(O)c3cccnc3)ccc1-2 (stereo not shown) [Compound 116, 2-([1,4]dioxan-2-ylmethoxy)-9-(3-hydroxy-3-pyridin-3-yl-propyl)-6,7-dihydro-pyrimido[6,1-a]isoquinolin-4-one]
- pIC50 (GPR84): 6.30 to 7.00
- pIC50 (human neutrophils): 7.00 to 11.00

SMILES: O=c1nc(OCC2COCCO2)cc2n1CCc1cc(-c3ccc(N4CCOCC4)nc3)ccc1-2 (stereo not shown) [Compound 62, 2-([1,4]dioxan-2-ylmethoxy)-9-(6-morpholin-4-yl-pyridin-3-yl)-6,7-dihydro-pyrimido[6,1-a]isoquinolin-4-one]
- pIC50 (GPR84): 7.00 to 11.00
- pIC50 (human neutrophils): 7.00 to 11.00

SMILES: CC(C)(C)C#Cc1ccc2c(c1)CCn1c-2cc(OCC2COCCO2)nc1=O (stereo not shown) [Compound 52, 9-(3,3-Dimethyl-but-1-ynyl)-2-([1,4]dioxan-2-ylmethoxy)-6,7-dihydro-pyrimido[6,1-a]isoquinolin-4-one]
- pIC50 (GPR84): 7.00 to 11.00
- pIC50 (human neutrophils): 7.00 to 11.00

SMILES: CC(C)C(O)C#Cc1ccc2c(c1)CCn1c-2cc(OCC2COCCO2)nc1=O (stereo not shown) [Compound 90, 2-([1,4]Dioxan-2-ylmethoxy)-9-(3-hydroxy-4-methyl-pent-1-ynyl)-6,7-dihydro-pyrimido[6,1-a]isoquinolin-4-one]
- pIC50 (GPR84): 7.00 to 11.00
- pIC50 (human neutrophils): 7.00 to 11.00

SMILES: CC(O)CCCc1ccc2c(c1)CCn1c-2cc(OC[C@@H]2COCCO2)nc1=O (stereo partly drawn) [Compound 150, 2-((S)-1-[1,4]dioxan-2-ylmethoxy)-9-(4-hydroxy-pentyl)-6,7-dihydro-pyrimido[6,1-a]isoquinolin-4-one]
- pIC50 (GPR84): 6.30 to 7.00
- pIC50 (human neutrophils): 7.00 to 11.00

SMILES: O=c1nc(OCC2COCCO2)cc2n1CCc1cc(-c3ccc(N4CCCCC4)nc3)ccc1-2 (stereo not shown) [Compound 68, 2-([1,4]dioxan-2-ylmethoxy)-9-(3,4,5,6-tetrahydro-2H-[1,2′]bipyridinyl-5′-yl)-6,7-dihydro-pyrimido[6,1-a]isoquinolin-4-one]
- pIC50 (GPR84): 7.00 to 11.00
- pIC50 (human neutrophils): 7.00 to 11.00

SMILES: Cn1cncc1C#Cc1ccc2c(c1)CCn1c-2cc(OCC2COCCO2)nc1=O (stereo not shown) [Compound 16, 2-([1,4]dioxan-2-ylmethoxy)-9-(3-methyl-3H-imidazol-4-ylethynyl)-6,7-dihydro-pyrimido[6,1-a]isoquinolin-4-one]
- pIC50 (GPR84): 6.30 to 7.00
- pIC50 (human neutrophils): 6.30 to 7.00
